Measured values as given in patent publication US6548268B1, “Chromogenic medium for detecting Staphylococcus aureus” (priority 1999, dated 2003).

Assays:
Staphylococcus aureus [1] = conditions: chromogenic agent in culture medium
From the text: (§1) The term “chromogenic agent” is understood to denote a compound which changes color in the presence of a specific strain, in particular under the effect of the enzymatic system of said strain.

Streptococcus strains = conditions: chromogenic agent in culture medium; a large number of Streptococcus strains
From the text: as §1

Staphylococcus aureus [2] = assay: Growth inhibition in the culture medium; assay type: cell-based; conditions: deferoxamine in the culture medium
From the text: The concentration used will preferably be between 0.010 and 0.100 g/l.

Row | Molecule | Staining in the presence of S. aureus (Staphylococcus aureus [1]) | Staining of Streptococcus strains (Streptococcus strains) | Inhibition of growth of Staphylococcus aureus (Staphylococcus aureus [2])
1 | 5-bromo-4-chloro-3-indoxyl galactoside | negative |  | 
2 | 5-bromo-4-chloro-3-indoxyl glucoside | without staining | stains blue | 
3 | 5-bromo-4-chloro-3-indoxyl glucuronide | negative |  | 
4 | 5-bromo-6-chloro-3-indoxyl phosphate | mauve staining |  | 
5 | CC(=O)N(O)CCCCCNC(=O)CCC(=O)N(O)CCCCCNC(=O)CCC(=O)N(O)CCCCCN [deferoxamine] |  |  | without inhibiting
